# From patent US6011070A, “Slow-onset, long-lasting dopamine reuptake blockers” (priority 1997, dated 2000)
# Read-outs that look alike come from different tables or passages of the source.
# Legend:
# male Swiss-Webster mice = assay: Dose response study of induced locomotor stimulation (Digiscan), 1 h session (Example 2); assay type: in vivo, Swiss-Webster mice (Hsd:ND4); details: IP, locomotor activity
# Protocol: A dose response study of induced locomotor stimulation was conducted according to the following procedure. The study was conducted using a 16 or 32 Digiscan locomotor activity testing chambers (40.5×40.5×30.5 cm) housed in sets of two, within sound-attenuating chambers. A panel of infrared beams (16 beams) and corresponding photodetectors were located in the horizontal direction along the sides of each activity chamber. A 15-W incandescent light above each chamber provided dim illumination. Fans provided an 80-dB ambient noise level within the chamber. Separate groups of 8 non-habituated male Swiss-Webster mice (Hsd:ND4, aged 2-3 months) were injected via the intraperitoneal (IP) route with either vehicle (deionized water for Compounds 1-4, carboxymethylcellulose for Compound 6 or methyl cellulose for Compound 7)) or test compound (1, 2.5, 5, 10, 25 or 50 mg/kg for Compound 3; 1, 3, 10 and 30 mg/kg for Compounds 1, 2 and 4; 3, 10, 30 or 100 mg/kg for Compound 6; and 1, 3, 10, 30 and 100 mg/kg for Compound 7). Compounds 1-4 were injected immediately prior to locomotor activity testing. […] In all studies, horizontal activity (interruption of photocell beams) was measured for 1 hour within 10 minute periods. Testing was conducted with one mouse per activity chamber.
# FIGS. 1, 3, 5 and 7 show average horizontal activity counts/10 minutes as a function of time, immediately following injection of Compound 1, Compound 2, Compound 3 and Compound 4, respectively. FIGS. 13 and 15 show average horizontal activity counts/10 minutes as a function of time, beginning twenty minutes following injection of Compound 6 and Compound 7, respectively. The period 30-60 minutes was selected for analysis of dose-response data. Using TableCurve 2D v2.03 software (Jandel Scientific), the mean average horizontal activity counts/10 minutes for this period were fit to a 3-parameter logistic peak function of log10 dose (with the constant set to 1989, the mean of the vehicle-treated group), and the maximum effect estimated from the resulting curve. […] FIGS. 2, 4, 6, 8, 14 and 16 show average horizontal activity counts/10 minutes over 30 minutes versus the amount administered of Compound 1, Compound 2, Compound 3, Compound 4, Compound 6 and Compound 7, respectively.
# dopamine transporter [1] = biological target: T1, dopamine transporter (Rattus norvegicus, UniProt P23977); assay: Inhibition of binding of dopamine to the dopamine transporter (Example 4)
# T1 construct: from tissue
# T1 sequence (P23977 whole entry): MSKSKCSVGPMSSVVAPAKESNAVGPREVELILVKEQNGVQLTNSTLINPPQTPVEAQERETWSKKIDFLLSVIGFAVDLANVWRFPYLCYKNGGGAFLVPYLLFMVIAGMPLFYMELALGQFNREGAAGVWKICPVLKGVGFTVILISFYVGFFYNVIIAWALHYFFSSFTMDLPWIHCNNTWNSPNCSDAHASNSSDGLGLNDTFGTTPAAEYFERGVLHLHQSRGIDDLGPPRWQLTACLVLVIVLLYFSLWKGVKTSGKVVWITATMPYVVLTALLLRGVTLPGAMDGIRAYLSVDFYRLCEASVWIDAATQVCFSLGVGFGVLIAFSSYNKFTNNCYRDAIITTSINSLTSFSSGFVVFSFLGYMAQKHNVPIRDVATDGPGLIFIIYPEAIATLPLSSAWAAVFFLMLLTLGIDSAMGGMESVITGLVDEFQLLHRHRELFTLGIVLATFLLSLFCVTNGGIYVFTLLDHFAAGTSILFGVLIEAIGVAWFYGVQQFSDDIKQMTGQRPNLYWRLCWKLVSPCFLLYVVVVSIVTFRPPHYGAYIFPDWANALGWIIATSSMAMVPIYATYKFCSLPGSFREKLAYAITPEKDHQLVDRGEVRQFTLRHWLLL
# dopamine transporter [2] = biological target: T1, dopamine transporter; assay: Inhibition of dopamine reuptake (Example 4); assay type: biochemical
# squirrel monkeys [3] = assay: Locomotor response in primates (Example 5); assay type: in vivo
# Protocol: Compound 1 was tested for its ability to induce a locomotor response in primates according to procedures disclosed in Rosenzweig-Lipson et al., Psychopharmacology 107:186 (1992). Three squirrel monkeys were administered 1.0 mg/kg of Compound 1. […] The results for each monkey are shown below in Table III and is presented as the responses per second on each day of the test. Controls were established by testing each monkey prior to administering Compound 1.
# monkeys = assay: Previous evaluation, Task I: Drug Discrimination; assay type: in vivo
# From the text: It is of interest to compare the results of the present study with the results of our previous evaluation of Compound 1 in Task I: Drug Discrimination. […] Higher doses of Compound 1 were not examined in the present study.
# male rhesus monkeys = details: for Rates of cocaine self-administration, % of control levels: 30 min pretreatment
# squirrel monkeys [4] = assay: Locomotor response in primates (Example 5); assay type: in vivo; remark: listed apart in the source
smiles,measurement,setting,value
"CN(C)C1CC(c2ccc(Cl)c(Cl)c2)c2ccccc21 (stereo not shown) [Compound 1, N,N-dimethyl-3-(3',4'-dichlorophenyl)-1-indanamine]",Maximal Effect Relative to Cocaine,male Swiss-Webster mice,0.82
same,ED50,"male Swiss-Webster mice; Mus musculus, 30-60 min period, read-out: ED50 (dose producing 1/2 maximal stimulant activity)",4.88 mg/kg
same,IC50,dopamine transporter [1],0.047 µM
same,Uptake/Binding,dopamine transporter [2]; ratio of IC50 values,1.19
same,IC50,"dopamine transporter [2]; read-out: DA Uptake, inhibition of dopamine reuptake IC50",0.056 µM
same,Time of peak of locomotor response,squirrel monkeys [3]; 1.0 mg/kg Compound 1,three
same,Number of Responses/Second,"squirrel monkeys [3]; 1.0 mg/kg Compound 1, Day 1, Monkey 6 (control 0.93)",1.01 responses/second
same,Number of Responses/Second,"squirrel monkeys [3]; 1.0 mg/kg Compound 1, Day 2, Monkey 4 (control 1.15)",1.72 responses/second
same,Number of Responses/Second,"squirrel monkeys [3]; 1.0 mg/kg Compound 1, Day 4, Monkey 4 (control 1.15)",1.06 responses/second
same,Number of Responses/Second,"squirrel monkeys [3]; 1.0 mg/kg Compound 1, Day 4, Monkey 5 (control 0.51)",1.01 responses/second
same,Number of Responses/Second,"squirrel monkeys [3]; 1.0 mg/kg Compound 1, Day 5, Monkey 4 (control 1.15)",1.05 responses/second
same,Effect on response rates,"monkeys; Compound 1, 3.2 mg/kg","little effect on response rates in two monkeys, increased response rates in one monkey, and eliminated responding in only one monkey"
same,"Effect on responding, feeding and behavior","monkeys; Compound 1, 10 mg/kg, one monkey","eliminated operant responding, decreased free feeding and produced overt behavioral effects including hyperactivity and agitation for several days"
same,Effect on response rates,"monkeys; Compound 1, doses up to 1.0 mg/kg",little or no effect on response rates
same,"Rates of cocaine self-administration, % of control levels",male rhesus monkeys; 3.2 mg/kg Compound 1 i.m.,approximately 25 % of control levels
same,Rates of cocaine self-administration and food-maintained responding across cocaine unit doses,"male rhesus monkeys; 3.2 mg/kg Compound 1 i.m., all three monkeys",decreased rates of cocaine self-administration across a wide range of cocaine unit doses while producing relatively minor effects on food-maintained responding
same,Rates of food-maintained responding,"male rhesus monkeys; 3.2 mg/kg Compound 1 i.m., monkey 89B056",usually unaffected
same,Rates of food-maintained responding,"male rhesus monkeys; 3.2 mg/kg Compound 1 i.m., monkey J3A",small and inconsistent changes
same,Cocaine unit doses at which self-administration rates were decreased,"male rhesus monkeys; 3.2 mg/kg Compound 1 i.m., monkey WH8",0.001-0.01 mg/kg/inj
same,"Rates of food-maintained responding, % of control levels","male rhesus monkeys; 3.2 mg/kg Compound 1 i.m., monkey WH8, first food component",approximately 30 % of control levels
same,Rates of food-maintained responding,"male rhesus monkeys; 3.2 mg/kg Compound 1 i.m., monkey WH8, second food component",unaffected
same,Range of cocaine doses across which self-administration was decreased,"male rhesus monkeys; 3.2 mg/kg Compound 1 i.m., three monkeys",one to two
same,"Rates of cocaine self-administration, % of control levels",male rhesus monkeys; 0.1-1.0 mg/kg Compound 1 i.m.,50-75 % of control levels
same,Overt behavioral effects,"male rhesus monkeys; Compound 1, 0.1-3.2 mg/kg i.m., prior to or during test session",did not produce noticeable overt behavioral effects
same,Onset of locomotor response,"squirrel monkeys [4]; 1.0 mg/kg Compound 1, 25 minute intervals",slow onset locomotor response
same,Number of Responses/Second,"squirrel monkeys [4]; 1.0 mg/kg Compound 1, Day 1, Monkey 4 (control 1.15)",1.63 responses/second
same,Number of Responses/Second,"squirrel monkeys [4]; 1.0 mg/kg Compound 1, Day 1, Monkey 5 (control 0.51)",0.76 responses/second
same,Number of Responses/Second,"squirrel monkeys [4]; 1.0 mg/kg Compound 1, Day 2, Monkey 5 (control 0.51)",1.50 responses/second
same,Number of Responses/Second,"squirrel monkeys [4]; 1.0 mg/kg Compound 1, Day 2, Monkey 6 (control 0.93)",1.31 responses/second
same,Number of Responses/Second,"squirrel monkeys [4]; 1.0 mg/kg Compound 1, Day 3, Monkey 4 (control 1.15)",1.92 responses/second
same,Number of Responses/Second,"squirrel monkeys [4]; 1.0 mg/kg Compound 1, Day 3, Monkey 5 (control 0.51)",1.51 responses/second
same,Number of Responses/Second,"squirrel monkeys [4]; 1.0 mg/kg Compound 1, Day 3, Monkey 6 (control 0.93)",1.40 responses/second
same,Number of Responses/Second,"squirrel monkeys [4]; 1.0 mg/kg Compound 1, Day 4, Monkey 6 (control 0.93)",1.16 responses/second
same,Number of Responses/Second,"squirrel monkeys [4]; 1.0 mg/kg Compound 1, Day 5, Monkey 5 (control 0.51)",0.82 responses/second
same,Number of Responses/Second,"squirrel monkeys [4]; 1.0 mg/kg Compound 1, Day 5, Monkey 6 (control 0.93)",1.14 responses/second
same,Number of Responses/Second,"squirrel monkeys [4]; 1.0 mg/kg Compound 1, Day 6, Monkey 5 (control 0.51)",0.62 responses/second
same,Number of Responses/Second,"squirrel monkeys [4]; 1.0 mg/kg Compound 1, Day 7, Monkey 5 (control 0.51)",0.60 responses/second
